Species on record: Rattus norvegicus
Assay: Open TG-GATES - Regimen: Daily Repeat
Format: toxicity, organism-based, Sprague-Dawley
Parameters: regimen Daily Repeat, gender Male, age 6 weeks
Conditions: in vivo, po, 3 mg/kg, route gavage, dose level Low; for APTT / Bas / Eos / Fbg / Hb / Ht / Lym / MCH / MCHC / MCV / Mono / Neu / PT / Plat / RBC / Ret / WBC: tissue Blood; for KIDNEY_L / KIDNEY_R / KIDNEY_TOTAL: tissue Kidney; for LIVER: tissue Liver; for A/G / ALP / ALT / AST / BUN / CRE / Ca / Cl / DBIL / GLC / IP / K / LDH / Na / PL / RALB / TBIL / TC / TG / TP / gamma-GTP: tissue Plasma

C=CCO [ALLYL ALCOHOL]
TERMINAL_BW (72 h, time 3 day): 238.5 g
APTT (72 h, time 3 day): 20.1 s
Bas (72 h, time 3 day): 0%
Eos (72 h, time 3 day): 1.2%
Fbg (72 h, time 3 day): 228.4 mg/dL
Hb (72 h, time 3 day): 13.8 g/dL
Ht (72 h, time 3 day): 40%
Lym (72 h, time 3 day): 77.8%
MCH (72 h, time 3 day): 20.8 pg
MCHC (72 h, time 3 day): 34.5%
MCV (72 h, time 3 day): 60.4 fL
Mono (72 h, time 3 day): 2.8%
Neu (72 h, time 3 day): 17.8%
PT (72 h, time 3 day): 11.6 s
Plat (72 h, time 3 day): 135.9 x10_4/uL
RBC (72 h, time 3 day): 662 x10_4/ul
Ret (72 h, time 3 day): 5.2%
WBC (72 h, time 3 day): 117.9 x10_2/uL
KIDNEY_L (72 h, time 3 day): 1 g
KIDNEY_R (72 h, time 3 day): 1 g
KIDNEY_TOTAL (72 h, time 3 day): 2 g
LIVER (72 h, time 3 day): 11.5 g
A/G (72 h, time 3 day): 1.6
ALP (72 h, time 3 day): 1089.8 IU/L
ALT (72 h, time 3 day): 37.6 IU/L
AST (72 h, time 3 day): 63.8 IU/L
BUN (72 h, time 3 day): 16.2 mg/dL
CRE (72 h, time 3 day): 0.5 mg/dL
Ca (72 h, time 3 day): 10.8 mg/dL
Cl (72 h, time 3 day): 103.2 meq/L
DBIL (72 h, time 3 day): 0.076 mg/dL
GLC (72 h, time 3 day): 225.8 mg/dL
IP (72 h, time 3 day): 7.1 mg/dL
K (72 h, time 3 day): 4.3 meq/L
LDH (72 h, time 3 day): 204.6 IU/L
Na (72 h, time 3 day): 140.4 meq/L
PL (72 h, time 3 day): 153 mg/dL
RALB (72 h, time 3 day): 3.4 g/dL
TBIL (72 h, time 3 day): 0.1 mg/dL
TC (72 h, time 3 day): 79.2 mg/dL
TG (72 h, time 3 day): 91.6 mg/dL
TP (72 h, time 3 day): 5.6 g/dL
gamma-GTP (72 h, time 3 day): 0.6 IU/L
TERMINAL_BW ([…], time 7 day): 274.1 g
TERMINAL_BW ([…], time 14 day): 304.7 g
TERMINAL_BW ([…], time 28 day): 380.5 g
APTT ([…], time 7 day): 19.5 s
Bas ([…], time 7 day): 0%
Eos ([…], time 7 day): 1%
Fbg ([…], time 7 day): 220.8 mg/dL
Hb ([…], time 7 day): 13.7 g/dL
Ht ([…], time 7 day): 40.3%
Lym ([…], time 7 day): 80.6%
MCH ([…], time 7 day): 20.5 pg
MCHC ([…], time 7 day): 34%
MCV ([…], time 7 day): 60.4 fL
Mono ([…], time 7 day): 2.6%
Neu ([…], time 7 day): 15.8%
PT ([…], time 7 day): 11.9 s
Plat ([…], time 7 day): 135 x10_4/uL
RBC ([…], time 7 day): 667.2 x10_4/ul
Ret ([…], time 7 day): 5.1%
WBC ([…], time 7 day): 128.3 x10_2/uL
APTT ([…], time 14 day): 20.1 s
Bas ([…], time 14 day): 0%
Eos ([…], time 14 day): 1.4%
Fbg ([…], time 14 day): 225.8 mg/dL
Hb ([…], time 14 day): 14.5 g/dL
Ht ([…], time 14 day): 42%
Lym ([…], time 14 day): 85.4%
MCH ([…], time 14 day): 20.3 pg
MCHC ([…], time 14 day): 34.6%
MCV ([…], time 14 day): 58.7 fL
Mono ([…], time 14 day): 2.4%
Neu ([…], time 14 day): 10.6%
PT ([…], time 14 day): 12 s
Plat ([…], time 14 day): 113.9 x10_4/uL
RBC ([…], time 14 day): 715.2 x10_4/ul
Ret ([…], time 14 day): 3.5%
WBC ([…], time 14 day): 110.3 x10_2/uL
APTT ([…], time 28 day): 20.8 s
Bas ([…], time 28 day): 0%
Eos ([…], time 28 day): 1%
Fbg ([…], time 28 day): 216.8 mg/dL
Hb ([…], time 28 day): 15.2 g/dL
Ht ([…], time 28 day): 43.8%
Lym ([…], time 28 day): 80%
MCH ([…], time 28 day): 19.3 pg
MCHC ([…], time 28 day): 34.7%
MCV ([…], time 28 day): 55.5 fL
Mono ([…], time 28 day): 2.2%
Neu ([…], time 28 day): 16%
PT ([…], time 28 day): 12 s
Plat ([…], time 28 day): 106.9 x10_4/uL
RBC ([…], time 28 day): 787.6 x10_4/ul
Ret ([…], time 28 day): 2.7%
WBC ([…], time 28 day): 103.8 x10_2/uL
KIDNEY_L ([…], time 7 day): 1.1 g
KIDNEY_R ([…], time 7 day): 1.1 g
KIDNEY_TOTAL ([…], time 7 day): 2.2 g
KIDNEY_L ([…], time 14 day): 1.2 g
KIDNEY_R ([…], time 14 day): 1.1 g
KIDNEY_TOTAL ([…], time 14 day): 2.3 g
KIDNEY_L ([…], time 28 day): 1.3 g
KIDNEY_R ([…], time 28 day): 1.4 g
KIDNEY_TOTAL ([…], time 28 day): 2.7 g
LIVER ([…], time 7 day): 13 g
LIVER ([…], time 14 day): 13 g
LIVER ([…], time 28 day): 15.8 g
A/G ([…], time 7 day): 1.6
ALP ([…], time 7 day): 883.8 IU/L
ALT ([…], time 7 day): 31.2 IU/L
AST ([…], time 7 day): 61.4 IU/L
BUN ([…], time 7 day): 16.2 mg/dL
CRE ([…], time 7 day): 0.4 mg/dL
Ca ([…], time 7 day): 10.9 mg/dL
Cl ([…], time 7 day): 101.6 meq/L
DBIL ([…], time 7 day): 0.088 mg/dL
GLC ([…], time 7 day): 221.4 mg/dL
IP ([…], time 7 day): 6.9 mg/dL
K ([…], time 7 day): 4.1 meq/L
LDH ([…], time 7 day): 192 IU/L
Na ([…], time 7 day): 141 meq/L
PL ([…], time 7 day): 145.6 mg/dL
RALB ([…], time 7 day): 3.5 g/dL
TBIL ([…], time 7 day): 0.1 mg/dL
TC ([…], time 7 day): 70.4 mg/dL
TG ([…], time 7 day): 120.6 mg/dL
TP ([…], time 7 day): 5.8 g/dL
gamma-GTP ([…], time 7 day): 0.8 IU/L
A/G ([…], time 14 day): 1.5
ALP ([…], time 14 day): 736.6 IU/L
ALT ([…], time 14 day): 39 IU/L
AST ([…], time 14 day): 60.2 IU/L
BUN ([…], time 14 day): 16.2 mg/dL
CRE ([…], time 14 day): 0.4 mg/dL
Ca ([…], time 14 day): 10.6 mg/dL
Cl ([…], time 14 day): 102.6 meq/L
DBIL ([…], time 14 day): 0.07 mg/dL
GLC ([…], time 14 day): 222.2 mg/dL
IP ([…], time 14 day): 6.3 mg/dL
K ([…], time 14 day): 3.6 meq/L
LDH ([…], time 14 day): 214.8 IU/L
Na ([…], time 14 day): 141.2 meq/L
PL ([…], time 14 day): 143 mg/dL
RALB ([…], time 14 day): 3.5 g/dL
TBIL ([…], time 14 day): 0.1 mg/dL
TC ([…], time 14 day): 74.8 mg/dL
TG ([…], time 14 day): 86.6 mg/dL
TP ([…], time 14 day): 5.9 g/dL
gamma-GTP ([…], time 14 day): 1.2 IU/L
A/G ([…], time 28 day): 1.2
ALP ([…], time 28 day): 620 IU/L
ALT ([…], time 28 day): 35.8 IU/L
AST ([…], time 28 day): 57.8 IU/L
BUN ([…], time 28 day): 15.2 mg/dL
CRE ([…], time 28 day): 0.5 mg/dL
Ca ([…], time 28 day): 10.4 mg/dL
Cl ([…], time 28 day): 102.8 meq/L
DBIL ([…], time 28 day): 0.076 mg/dL
GLC ([…], time 28 day): 218.2 mg/dL
IP ([…], time 28 day): 5.8 mg/dL
K ([…], time 28 day): 3.7 meq/L
LDH ([…], time 28 day): 210.8 IU/L
Na ([…], time 28 day): 139.8 meq/L
PL ([…], time 28 day): 138.6 mg/dL
RALB ([…], time 28 day): 3.4 g/dL
TBIL ([…], time 28 day): 0.1 mg/dL
TC ([…], time 28 day): 65.8 mg/dL
TG ([…], time 28 day): 114.4 mg/dL
TP ([…], time 28 day): 6.2 g/dL
gamma-GTP ([…], time 28 day): 0.6 IU/L

From ChEMBL document CHEMBL3885861, “Open TG-GATES”
